From paper PMC3389674, “Comparison of Soluble Guanylate Cyclase Stimulators and Activators in Models of Cardiovascular Disease Associated with Oxidative Stress” (Frontiers in Pharmacology, 2012)

What was measured:
sGC = molecular target: T1, sGC (Rattus norvegicus, UniProt P20595); experiment: P-VASP formation in rat aortic smooth muscle cells; type: cell-based
T1 construct: in rat aortic smooth muscle cells; endogenous in cells; host or cells: primary rat aortic smooth muscle cells
T1 sequence (P20595 1-619): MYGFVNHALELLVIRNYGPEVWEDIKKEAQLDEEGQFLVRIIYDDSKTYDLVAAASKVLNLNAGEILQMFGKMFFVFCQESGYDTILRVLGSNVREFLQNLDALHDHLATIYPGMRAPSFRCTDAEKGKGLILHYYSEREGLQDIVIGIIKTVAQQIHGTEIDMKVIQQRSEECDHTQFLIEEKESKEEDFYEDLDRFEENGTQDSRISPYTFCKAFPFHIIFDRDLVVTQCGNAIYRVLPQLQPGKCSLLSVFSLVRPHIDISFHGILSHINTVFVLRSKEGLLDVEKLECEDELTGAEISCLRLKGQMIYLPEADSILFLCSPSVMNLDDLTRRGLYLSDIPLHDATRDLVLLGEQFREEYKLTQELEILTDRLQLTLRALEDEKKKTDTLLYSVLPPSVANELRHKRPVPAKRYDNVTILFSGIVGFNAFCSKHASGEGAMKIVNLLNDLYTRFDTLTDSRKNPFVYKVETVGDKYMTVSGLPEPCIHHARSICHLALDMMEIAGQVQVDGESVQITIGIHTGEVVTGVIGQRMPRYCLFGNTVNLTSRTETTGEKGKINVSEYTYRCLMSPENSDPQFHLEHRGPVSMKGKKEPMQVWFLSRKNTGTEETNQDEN
T1 sequence (P19686 1-690 partner): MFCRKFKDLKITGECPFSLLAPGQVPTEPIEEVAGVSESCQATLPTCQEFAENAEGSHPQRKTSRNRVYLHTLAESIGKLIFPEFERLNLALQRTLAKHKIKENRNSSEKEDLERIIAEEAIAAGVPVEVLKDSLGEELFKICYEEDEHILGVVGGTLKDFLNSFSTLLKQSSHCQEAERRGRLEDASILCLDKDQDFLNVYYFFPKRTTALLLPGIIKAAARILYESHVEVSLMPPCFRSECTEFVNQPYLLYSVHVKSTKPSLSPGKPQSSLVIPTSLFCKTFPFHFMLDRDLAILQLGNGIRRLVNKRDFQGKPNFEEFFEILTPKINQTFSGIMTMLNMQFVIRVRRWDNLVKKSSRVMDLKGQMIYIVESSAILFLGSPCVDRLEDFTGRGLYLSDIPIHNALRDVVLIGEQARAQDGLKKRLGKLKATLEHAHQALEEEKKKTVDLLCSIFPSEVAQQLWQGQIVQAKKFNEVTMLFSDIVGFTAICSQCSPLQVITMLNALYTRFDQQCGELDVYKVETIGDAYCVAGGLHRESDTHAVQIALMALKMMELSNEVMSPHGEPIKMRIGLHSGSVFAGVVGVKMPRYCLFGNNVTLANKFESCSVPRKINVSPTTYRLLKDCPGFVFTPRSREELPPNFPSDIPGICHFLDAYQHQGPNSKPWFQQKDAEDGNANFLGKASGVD
Protocol: The potency, efficacy, and mechanism of action of the sGC modulators GSK2181236A and BAY 60-4552 were assessed by measuring phosphorylation of the protein kinase G (PKG) substrate […] (VASP) in rat aortic smooth muscle cells. […] Dimethylsulfoxide (DMSO) vehicle or varying concentrations of GSK2181236A (2 pM to 1 μM) or BAY 60-4552 (15 nM to 100 μM) were then added. Following a 30 min incubation at 37°C, media was aspirated and the cells were rinsed with phosphate-buffered saline (PBS) and fixed with 4% formaldehyde in PBS by incubating at room temperature for 20 min. Cells were then washed with PBS and permeabilized for 10 min using 0.1% triton X-100 in PBS. Following PBS rinsing, the cells were blocked for 90 min at room temperature with Odyssey Blocking Buffer (LI-COR, Cambridge, UK). The buffer was aspirated and the cells were treated overnight at 4°C with primary antibody [(pSer^239) VASP, rabbit polyclonal Ab, Cell Signaling Technology, Danvers, MA, USA] diluted 1:500 in Odyssey Blocking Buffer. Following three washes with 0.05% Tween 20, the cells were treated for 1 h at room temperature with secondary antibody (IRDye® 800CW Donkey Anti-Rabbit IgG, LI-COR) diluted 1:2500 in Odyssey Blocking Buffer with 0.05% Tween 20. Following two washes with PBS, infrared fluorescence was measured using an Odyssey Infrared Imaging System (LI-COR).

SHR-SP cardiac tissue = experiment: cardiac gene expression in HSFD SHR-SP after chronic treatment; type: in vivo, rat
Protocol: On week 8, isoflurane anesthetized rats were euthanized via exsanguination. The thoracic aorta was excised for assessment of endothelial function as described below. Hearts were snap-frozen in liquid nitrogen and stored at −80°C for later analysis of gene expression changes associated with cardiac hypertrophy and fibrosis (see below for procedure details).
Cardiac gene expression was analyzed following chronic (7 week) BAY 60-4552 or GSK2181236A treatment in HSFD SHR-SP. Hearts were homogenized in Trizol and RNA was extracted using the RNeasy Plus Mini kit protocol (Qiagen, Valencia, CA, USA) with a 40 μL elution volume. RNA was quantified using a Nanodrop Spectrophotometer ND-1000 (Thermo Fisher Scientific, Wilmington, DE, USA) and converted to cDNA using the High Capacity cDNA Reverse Transcription Kit (Applied Biosystems, Carlsbad, CA, USA). Taqman assays were performed using a 384-well plate format with individual primer-probes and Taqman Universal PCR Master Mix (Applied Biosystems) and run on the 7900 HT Fast Real-Time PCR System (Applied Biosystems). SDS 2.3 software (Applied Biosystems) was used to obtain raw Ct values with manual threshold set at 0.10. Array Studio software (version 3.6.2; OmicSoft Corporation, Cary, NC, USA) was used to normalize gene expression data, by analysis of covariance, to the housekeeper genes β-2-microglobulin (B2m) and peptidyl-prolyl cis-trans isomerase A (Ppia). No outliers were detected by means of principal component analysis.
The following genes were analyzed: α-skeletal actin (Acta1), type 1 collagen-alpha 1 (Col1a1), type 3 collagen-alpha 1 (Col3a1), connective tissue growth factor (CTGF; Ctgf), matrix metalloproteinase 2 (MMP2; Mmp2), matrix metalloproteinase 9 (MMP9; Mmp9), α-myosin heavy chain (α-MHC; Myh6), β-myosin heavy chain (β-MHC; Myh7); atrial natriuretic factor (ANF; Nppa), brain-type natriuretic peptide (BNP; Nppb), cGMP-specific phosphodiesterase 5A (PDE5A; Pde5a), type 2 cGMP-dependent protein kinase (PKG2; Prkg2), and transforming growth factor beta 1 (TGF-β1; Tgfb1).

| Structure (SMILES) | EC50 (sGC; Control (no ODQ)) | Emax, P-VASP formation (sGC; Control (no ODQ)) | rightward-shift of P-VASP concentration-response curve by ODQ (sGC; ODQ 10 μM vs control) | suppression of P-VASP maximal response by ODQ (trend) (sGC; ODQ 10 μM vs control) | EC50 (sGC; ODQ (10 μM) pre-treatment) | Emax, P-VASP formation (sGC; ODQ (10 μM) pre-treatment) | attenuation of HSFD-induced increase of α-skeletal actin expression (SHR-SP cardiac tissue; 0.3 mg/kg/day, 7 weeks) | attenuation of HSFD-induced increase of α-skeletal actin expression (SHR-SP cardiac tissue; 3.0 mg/kg/day, 7 weeks) | attenuation of HSFD-induced increase of ANF expression (SHR-SP cardiac tissue; 0.3 and 3.0 mg/kg/day, P > 0.05 vs. HSFD) | leftward-shift of P-VASP concentration-response curve by ODQ (sGC; ODQ 10 μM vs control) | Emax (sGC; ODQ 10 μM vs control, read-out: augmentation of P-VASP maximal response by ODQ) | attenuation of HSFD-induced increase of ANF expression (SHR-SP cardiac tissue; 1.0 mg/kg/day, 7 weeks) | attenuation of HSFD-induced increase of α-skeletal actin expression (SHR-SP cardiac tissue; 1.0 mg/kg/day, 7 weeks) |
| --- | --- | --- | --- | --- | --- | --- | --- | --- | --- | --- | --- | --- | --- |
| COC(=O)Nc1c(N)nc(-c2nn(Cc3ccccc3F)c3ncccc23)nc1N [BAY 60-4552] | 353 ± 89 nM | 388 ± 39 % DMSO | 9.8 fold | 7% | 3260 nM | 362 ± 24 % DMSO | 1.3 fold | 1.4 fold | non-significant trend |  |  |  |  |
| Cc1cc(-c2ccc(OC(F)(F)F)cc2)ccc1COc1ccccc1-c1cccc(-n2ncc(C(=O)O)c2C(F)(F)F)n1 [GSK2181236A, 1-(6-{2-[({3-methyl-4′-[(trifluoromethyl)oxy]-4-biphenylyl}methyl)oxy]phenyl}-2-pyridinyl)-5-(trifluoromethyl)-1H-pyrazole-4-carboxylic acid] | 12.7 ± 4.7 nM | 379 ± 26 % DMSO |  |  | 2.7 ± 0.6 nM | 502 ± 26 % DMSO |  |  |  | 4.7 fold | 32% | 1.4 fold | 1.7 fold |
